Measured values as given in PubChem BioAssay (NCI).
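GI50 = concentration required for 50% inhibition of growth. TGI marks complete inhibition of growth.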

Experiments:
Assay in all cases: NCI-60 cell line screen, 384-well format
HS 578T breast = test system: HS 578T breast
HT29 colon = test system: HT29 colon
SK-MEL-5 melanoma = test system: SK-MEL-5 melanoma
A498 renal = test system: A498 renal
T-47D breast = test system: T-47D breast
NCI-H460 NSCLC = test system: NCI-H460 NSCLC
NCI-H226 lung = test system: NCI-H226 lung
HOP-62 NSCLC = test system: HOP-62 NSCLC
M14 melanoma = test system: M14 melanoma
NCI-H322M lung = test system: NCI-H322M lung
HOP-92 NSCLC = test system: HOP-92 NSCLC
MALME-3M melanoma = test system: MALME-3M melanoma
COLO 205 colon = test system: COLO 205 colon
OVCAR-5 ovarian = test system: OVCAR-5 ovarian
SK-MEL-28 melanoma = test system: SK-MEL-28 melanoma
MOLT-4 leukemia = test system: MOLT-4 leukemia
DU-145 prostate = test system: DU-145 prostate
RXF 393 renal = test system: RXF 393 renal
SK-OV-3 ovarian = test system: SK-OV-3 ovarian
ACHN renal = test system: ACHN renal
SF-539 CNS = test system: SF-539 CNS
UACC-62 melanoma = test system: UACC-62 melanoma
SNB-75 CNS = test system: SNB-75 CNS
SF-295 CNS = test system: SF-295 CNS
786-0 renal = test system: 786-0 renal
MDA-MB-231 breast = test system: MDA-MB-231 breast
KM12 colon = test system: KM12 colon
SW-620 colon = test system: SW-620 colon
SK-MEL-2 melanoma = test system: SK-MEL-2 melanoma
NCI-H23 lung = test system: NCI-H23 lung
OVCAR-3 ovarian = test system: OVCAR-3 ovarian
HCT-15 colon = test system: HCT-15 colon
HCT-116 colon = test system: HCT-116 colon
MDA-MB-435 melanoma = test system: MDA-MB-435 melanoma
MCF7 breast = test system: MCF7 breast
UACC-257 melanoma = test system: UACC-257 melanoma
NCI-H522 lung = test system: NCI-H522 lung
SR leukemia = test system: SR leukemia
OVCAR-4 ovarian = test system: OVCAR-4 ovarian
UO-31 renal = test system: UO-31 renal
SNB-19 CNS = test system: SNB-19 CNS
SF-268 CNS = test system: SF-268 CNS
U251 glioblastoma = test system: U251 glioblastoma
MDA-MB-468 breast = test system: MDA-MB-468 breast
BT-549 breast = test system: BT-549 breast
IGROV1 ovarian = test system: IGROV1 ovarian
A549 NSCLC = test system: A549 NSCLC
TK-10 renal = test system: TK-10 renal
PC-3 prostate = test system: PC-3 prostate
EKVX NSCLC = test system: EKVX NSCLC
CAKI-1 renal = test system: CAKI-1 renal
SN12C renal = test system: SN12C renal
OVCAR-8 ovarian = test system: OVCAR-8 ovarian
K-562 leukemia = test system: K-562 leukemia
HL-60(TB) leukemia = test system: HL-60(TB) leukemia

CCOC(=O)[C@@H](N)CCC(=O)N[C@@H](CSCc1ccccc1)C(=O)N[C@@H](C(=O)OCC)c1ccccc1
GI50 (HS 578T breast): 15.3 µM
TGI (HS 578T breast): 28.6 µM
GI50 (HT29 colon): 8.24 µM
TGI (HT29 colon): 20.7 µM
GI50 (SK-MEL-5 melanoma): 15.3 µM
TGI (SK-MEL-5 melanoma): 29 µM
GI50 (A498 renal): 11.6 µM
TGI (A498 renal): 24.1 µM
GI50 (T-47D breast): 15.5 µM
TGI (T-47D breast): 29 µM
GI50 (NCI-H460 NSCLC): 7.59 µM
TGI (NCI-H460 NSCLC): 20.1 µM
GI50 (NCI-H226 lung): 11.8 µM
TGI (NCI-H226 lung): 25.6 µM
GI50 (HOP-62 NSCLC): 9.1 µM
TGI (HOP-62 NSCLC): 24 µM
GI50 (M14 melanoma): 16.8 µM
TGI (M14 melanoma): 30.4 µM
GI50 (NCI-H322M lung): 18.1 µM
TGI (NCI-H322M lung): 60 µM
GI50 (HOP-92 NSCLC): 10.4 µM
TGI (HOP-92 NSCLC): 22.2 µM
GI50 (MALME-3M melanoma): 16.4 µM
TGI (MALME-3M melanoma): 30.1 µM
GI50 (COLO 205 colon): 11.5 µM
TGI (COLO 205 colon): 23.8 µM
GI50 (OVCAR-5 ovarian): 32.3 µM
TGI (OVCAR-5 ovarian): > 100 µM
GI50 (SK-MEL-28 melanoma): 16.5 µM
TGI (SK-MEL-28 melanoma): 30.1 µM
GI50 (MOLT-4 leukemia): 2.01 µM
TGI (MOLT-4 leukemia): 3.57 µM
GI50 (DU-145 prostate): 19.2 µM
TGI (DU-145 prostate): 45.3 µM
GI50 (RXF 393 renal): 10.8 µM
TGI (RXF 393 renal): 22.7 µM
GI50 (SK-OV-3 ovarian): 13.9 µM
TGI (SK-OV-3 ovarian): 26.9 µM
GI50 (ACHN renal): 8.55 µM
TGI (ACHN renal): 20.9 µM
GI50 (SF-539 CNS): 12.5 µM
TGI (SF-539 CNS): 25.1 µM
GI50 (UACC-62 melanoma): 10.5 µM
TGI (UACC-62 melanoma): 22.4 µM
GI50 (SNB-75 CNS): 12.2 µM
TGI (SNB-75 CNS): 24.7 µM
GI50 (SF-295 CNS): 13.1 µM
TGI (SF-295 CNS): 26.1 µM
GI50 ([…]-0 renal): 12.3 µM
TGI (786-0 renal): 24.8 µM
GI50 (MDA-MB-231 breast): 11.9 µM
TGI (MDA-MB-231 breast): 24.2 µM
GI50 (KM12 colon): 6.17 µM
TGI (KM12 colon): 18.5 µM
GI50 (SW-620 colon): 9.33 µM
TGI (SW-620 colon): 21.4 µM
GI50 (SK-MEL-2 melanoma): 15.5 µM
TGI (SK-MEL-2 melanoma): 29 µM
GI50 (NCI-H23 lung): 16.2 µM
TGI (NCI-H23 lung): 32.5 µM
GI50 (OVCAR-3 ovarian): 13.5 µM
TGI (OVCAR-3 ovarian): 26.4 µM
GI50 (HCT-15 colon): 20.1 µM
TGI (HCT-15 colon): 40.8 µM
GI50 (HCT-116 colon): 5.21 µM
TGI (HCT-116 colon): 17 µM
GI50 (MDA-MB-435 melanoma): 17.3 µM
TGI (MDA-MB-435 melanoma): 31.2 µM
GI50 (MCF7 breast): 5.51 µM
TGI (MCF7 breast): 19 µM
GI50 (UACC-257 melanoma): 16.9 µM
TGI (UACC-257 melanoma): 30.6 µM
GI50 (NCI-H522 lung): 14.4 µM
TGI (NCI-H522 lung): 27.6 µM
GI50 (SR leukemia): 1.82 µM
TGI (SR leukemia): 3.43 µM
GI50 (OVCAR-4 ovarian): 16 µM
TGI (OVCAR-4 ovarian): 31.4 µM
GI50 (UO-31 renal): 38.6 µM
TGI (UO-31 renal): > 100 µM
GI50 (SNB-19 CNS): 15.7 µM
TGI (SNB-19 CNS): 30.3 µM
GI50 (SF-268 CNS): 10.5 µM
TGI (SF-268 CNS): 22.4 µM
GI50 (U251 glioblastoma): 11.2 µM
TGI (U251 glioblastoma): 23.5 µM
GI50 (MDA-MB-468 breast): 5.45 µM
TGI (MDA-MB-468 breast): 17.2 µM
GI50 (BT-549 breast): 17.5 µM
TGI (BT-549 breast): 31.3 µM
GI50 (IGROV1 ovarian): 13 µM
TGI (IGROV1 ovarian): 25.9 µM
GI50 (A549 NSCLC): 25.3 µM
TGI (A549 NSCLC): > 100 µM
GI50 (TK-10 renal): 14.5 µM
TGI (TK-10 renal): 27.9 µM
GI50 (PC-3 prostate): 14.8 µM
TGI (PC-3 prostate): 28.1 µM
GI50 (EKVX NSCLC): 20.4 µM
TGI (EKVX NSCLC): 43.6 µM
GI50 (CAKI-1 renal): 8.03 µM
TGI (CAKI-1 renal): 20.4 µM
GI50 (SN12C renal): 15 µM
TGI (SN12C renal): 28.3 µM
GI50 (OVCAR-8 ovarian): 10.8 µM
TGI (OVCAR-8 ovarian): 22.8 µM
GI50 (K-562 leukemia): 10.6 µM
TGI (K-562 leukemia): 22.7 µM
GI50 (HL-60(TB) leukemia): 18.5 µM
TGI (HL-60(TB) leukemia): 32.6 µM
